Patent US10196701B2, “Hepatitis B virus capsid assembly” (The Penn State Research Foundation, priority 2015, dated 2019)

Legend:
HBc CTD = assay: Mobility of unassembled HBc on agarose gel (CTD phosphorylation state) and HBc protein levels in RRL; assay type: biochemical, Hepatitis B virus; conditions: for mobility upshift on the agarose gel of WT HBc: kinase inhibitors added at beginning of translation, ERKI 310 μM, Bisindo 40 μM; for mobility upshift on the agarose gel of WT HBc / C149 mobility on the agarose gel: Rosc 250 μM; for C149 mobility on the agarose gel: kinase inhibitors
Experimental: (§1) The TNT Coupled Rabbit Reticulocyte Lysate (RRL) in vitro translation system (Promega) was used to express the HBc proteins as recommended by the manufacturer's protocol. In vitro translated proteins were labeled by ^35S methionine. The translation reaction mix contained ca. 125 mM KCI and 2.5 mM Mg^++ (Promega).
(§2) Unless specifically indicated otherwise, the general assembly reactions included 1 to 3 microL of translation products per 10 microL final reaction volume in 1× buffer 3 (100 mM NaCl, 50 mM Tris-HCl, 10 mM MgCl2, 1 mM DTT, pH 7.9; New England Biolabs) supplemented with 1×EDTA-free protease inhibitor cocktail (Roche) and 0.8 U/μl RNasin Plus RNase Inhibitor (Promega). The reactions were incubated for 16 hrs at 37° C. unless indicated otherwise. Where indicated, additional enzymatic manipulations were performed using the same reaction buffer as above. (1) Exogenous phosphatase treatment. One unit of calf intestinal alkaline phosphatase (CIAP; New England Biolabs) per microliter of the final reaction volume was added at the end of translation and incubated for 16 hours at 37° C. (2) Kinase inhibitor treatment. […] The final concentration of DMSO in all reactions was 1% (i.e., kinase inhibitor stocks were always diluted 100-fold into the translation or assembly reactions). (3) Phosphatase inhibitor treatment. A cocktail of non-specific phosphatase inhibitors (10 mM NaF, 50 mM β-glycerophosphate, 10 mM sodium pyrophosphate, and 2 mM sodium orthovanadate; all final concentrations) were added at the end of the translation and incubated for 16 hours at 37° C. Alternatively, okadaic acid (Sigma) was added at the end of the translation at the indicated concentrations and incubated for 16 hours at 37° C. (4) RNase A digestion. RNase A (100 μg/ml final concentration) was added at the end of the translation and incubated for 16 hour at 37° C., or added at the end of the 16 hr assembly reaction and incubated for another one hr.
(§3) ^35S-labeled translation reactions were resolved by 1% agarose gel electrophoresis (100 V for ˜3 hours), using 6×DNA Loading Buffer Blue (New England Biolabs). The gels were then soaked in 10×SSC (1.5 M NaCl, 150 mM sodium citrate, pH 7.0) for approximately 30 minutes and transferred overnight to nitrocellulose membrane by capillary transfer. The next day the membranes were UV cross-linked and dried in a vacuum oven for 2 hours. The translation products were analyzed by autoradiography and Western blotting with the rabbit polyclonal anti-HBcAg (Dako) or mouse monoclonal anti-woodchuck hepatitis virus core protein (Ning X, et al. (2011) PLoS pathogens 7: e1002255).
^35S-labeled translation reactions were resolved by SDS-PAGE on 15% or 12.5% polyacrylamide gels. The resolved proteins were transferred to PVDF membrane and detected by autoradiography or Western blotting as above.

[1] = tested on: HBc (HBV capsid assembly); assay: In vitro capsid assembly in RRL, agarose gel electrophoresis; assay type: biochemical, Hepatitis B virus
Experimental: as §1, §2, §3

PP1 = conditions: cellular serine/threonine phosphatase PP1; Cohen P, et al. (1990); cited from earlier work
PP2A = conditions: cellular serine/threonine phosphatase PP2A; Cohen P, et al. (1990); cited from earlier work
[2] = kinase inhibitors, Rosc 250 μM, CDK2I 250 μM
[3] = phosphatase inhibitor added during assembly incubation, OA 50 nM
[4] = RNase pretreatment before assembly
[5] = RNase treatment before assembly
[6] = CIAP treatment following translation

With `Nc1[nH]nc2nnc(-c3c(-c4ccccc4)nn4ccccc34)cc12` [ERK inhibitor, Erk inhibitor II] the “mobility upshift on the agarose gel of WT HBc” value (“mobility upshift … of WT HBc” below) (HBc CTD; CDK2I 250 μM) was “no effect”.

With `COc1ccc(CNc2nc(N(CCO)CCO)nc3c2ncn3C(C)C)cc1` [CDK2 inhibitor, CDK2 inhibitor III] the 7E assembly [1, 2] was “little effect”, the “levels of the WT and mutant HBc proteins” value (HBc CTD; SDS-PAGE, CDK2I 250 μM) was “increase” and the “mobility upshift … of WT HBc” value (HBc CTD; CDK2I 250 μM) was “induced a mobility upshift”. The “C149 mobility on the agarose gel” value (HBc CTD; CDK2I 250 μM) was “no effect”.

With `C=C1[C@@H](O)[C@@H]2O[C@]3(CC[C@H](/C=C/[C@@H](C)[C@@H]4CC(C)=C[C@@]5(O[C@H](C[C@@](C)(O)C(=O)O)CC[C@H]5O)O4)O3)CC[C@H]2O[C@@H]1[C@@H](O)C[C@H](C)[C@H]1O[C@@]2(CCCCO2)CC[C@H]1C` [OA, okadaic acid] the “capsid assembly by 3A” value [1, 3] was “not inhibited”, the “capsid assembly by 3E” value [1, 3] was “prevented assembly” and the “mobility upshift of the WT HBc on the agarose gel” value (HBc CTD; phosphatase inhibitor added during overnight 37° C. incubation following translation, OA 50 nM) was “completely blocked”. For the same molecule, the “OA concentration that could significantly affect the dephosphorylation-induced mobility upshift of the WT HBc” value (HBc CTD; titration of OA, overnight incubation at 37° C.) was 4 nM, the IC50 (PP1) was 15 to 20 nM and the IC50 (PP2A) was roughly 0.1 nM.

For `CN(C)CCCn1cc(C2=C(c3c[nH]c4ccccc34)C(=O)NC2=O)c2ccccc21` [PKC inhibitor, Bisindolymaleimide I], the “mobility upshift … of WT HBc” value (HBc CTD; CDK2I 250 μM) was “no effect”.

For `CC[C@H](CO)Nc1nc(NCc2ccccc2)c2ncn(C(C)C)c2n1` [roscovitine, Roscovitine], the 7E assembly [1, 2] was “little effect” and the “C149 mobility on the agarose gel” value (HBc CTD; CDK2I 250 μM) was “no effect”.

B1: RNase: RNase A, 100 μg/ml final concentration (protein, UniProt P61823 27-150, looked up)
Ribonuclease pancreatic: KETAAAKFERQHMDSSTSAASSSNYCNQMMKSRNLTKDRCKPVNTFVHESLADVQAVCSQKNVACKNGQTNCYQSYSTMSITDCRETGSSKYPNCAYKTTQANKHIIVACEGNPYVPVHFDASV
With B1 the “assembly of the 3A mutant” value [1, 4] was “no effect”, the “assembly of the 3E mutant” value [1, 4] was “prevented assembly” and the “WT HBc capsid assembly” value ([1]; RNase treatment before CIAP treatment, RNase A 100 μg/ml) was “prevented capsid assembly”. The 7A assembly [1, 5] was “abolished”, the 7E assembly [1, 5] was “no effect” and the “assembled capsids (WT and mutants)” value ([1]; RNase treatment following the completion of capsid assembly) was “little effect”.

B2: CIAP: calf intestinal alkaline phosphatase, exogenous phosphatase (New England Biolabs) (protein, UniProt P19111 20-506, looked up)
Intestinal-type alkaline …: LVPVEEEDPAFWNRQAAQALDVAKKLQPIQTAAKNVILFLGDGMGVPTVTATRILKGQMNGKLGPETPLAMDQFPYVALSKTYNVDRQVPDSAGTATAYLCGVKGNYRTIGVSAAARYNQCKTTRGNEVTSVMNRAKKAGKSVGVVTTTRVQHASPAGAYAHTVNRNWYSDADLPADAQMNGCQDIAAQLVNNMDIDVILGGGRKYMFPVGTPDPEYPDDASVNGVRKRKQNLVQAWQAKHQGAQYVWNRTALLQAADDSSVTHLMGLFEPADMKYNVQQDHTKDPTLQEMTEVALRVVSRNPRGFYLFVEGGRIDHGHHDDKAYMALTEAGMFDNAIAKANELTSELDTLILVTADHSHVFSFGGYTLRGTSIFGLAPSKALDSKSYTSILYGNGPGYALGGGSRPDVNDSTSEDPSYQQQAAVPQASETHGGEDVAVFARGPQAHLVHGVEEETFVAHIMAFAGCVEPYTDCNLPAPTTATSIPD
With B2 the “assembly of the WT HBc” value ([1]; CIAP 1 unit per microliter, 16 hours at 37° C. following translation) was “induced the assembly”, the “assembly of the 3A mutant” value [1, 6] was “did not have a significant effect” and the “assembly of the 3E mutant” value [1, 6] was “did not have a significant effect”. For the same molecule, the “mobility of the C149 truncation mutant” value (HBc CTD; [6]) was “did not affect the mobility”.
